In assay [1] the target is Stromelysin-1 (Homo sapiens, UniProt P08254). Put plainly: Inhibition of recombinant human matrix metalloprotease-3.
The target in assay [2] is Matrix metalloproteinase-9 (Homo sapiens, UniProt P14780). Put plainly: Inhibition of recombinant human matrix metalloprotease-9.
Assay [3] deals with T1, Interstitial collagenase (Homo sapiens, UniProt P03956).
T1 sequence (P03956 whole entry): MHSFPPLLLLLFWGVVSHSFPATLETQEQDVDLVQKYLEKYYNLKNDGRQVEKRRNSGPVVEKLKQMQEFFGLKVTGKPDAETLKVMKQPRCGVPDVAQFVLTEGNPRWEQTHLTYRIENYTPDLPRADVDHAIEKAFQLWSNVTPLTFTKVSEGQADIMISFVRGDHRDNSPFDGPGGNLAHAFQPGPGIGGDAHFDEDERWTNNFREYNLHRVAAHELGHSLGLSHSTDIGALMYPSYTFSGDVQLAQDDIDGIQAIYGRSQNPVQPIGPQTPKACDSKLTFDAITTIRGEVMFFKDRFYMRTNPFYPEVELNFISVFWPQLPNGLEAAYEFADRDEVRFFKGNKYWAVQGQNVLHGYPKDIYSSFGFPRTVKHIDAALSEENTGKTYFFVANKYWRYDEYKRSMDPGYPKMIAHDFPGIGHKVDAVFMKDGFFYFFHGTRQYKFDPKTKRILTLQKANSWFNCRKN
Put plainly: Inhibition of recombinant human matrix metalloprotease-1.

Assay [4] addresses T2, Disintegrin and metalloproteinase domain-containing protein 17 (Homo sapiens, UniProt P78536). Put plainly: Inhibition of recombinant human TNF-alpha converting enzyme (TACE).
The target of assay [5] is T2, Disintegrin and metalloproteinase domain-containing protein 17. The experiment in a line: Inhibition of recombinant human TNF-alpha converting enzyme.

The structures appear in SMILES notation.

T2 sequence (P78536 whole entry, the tested form may be a part): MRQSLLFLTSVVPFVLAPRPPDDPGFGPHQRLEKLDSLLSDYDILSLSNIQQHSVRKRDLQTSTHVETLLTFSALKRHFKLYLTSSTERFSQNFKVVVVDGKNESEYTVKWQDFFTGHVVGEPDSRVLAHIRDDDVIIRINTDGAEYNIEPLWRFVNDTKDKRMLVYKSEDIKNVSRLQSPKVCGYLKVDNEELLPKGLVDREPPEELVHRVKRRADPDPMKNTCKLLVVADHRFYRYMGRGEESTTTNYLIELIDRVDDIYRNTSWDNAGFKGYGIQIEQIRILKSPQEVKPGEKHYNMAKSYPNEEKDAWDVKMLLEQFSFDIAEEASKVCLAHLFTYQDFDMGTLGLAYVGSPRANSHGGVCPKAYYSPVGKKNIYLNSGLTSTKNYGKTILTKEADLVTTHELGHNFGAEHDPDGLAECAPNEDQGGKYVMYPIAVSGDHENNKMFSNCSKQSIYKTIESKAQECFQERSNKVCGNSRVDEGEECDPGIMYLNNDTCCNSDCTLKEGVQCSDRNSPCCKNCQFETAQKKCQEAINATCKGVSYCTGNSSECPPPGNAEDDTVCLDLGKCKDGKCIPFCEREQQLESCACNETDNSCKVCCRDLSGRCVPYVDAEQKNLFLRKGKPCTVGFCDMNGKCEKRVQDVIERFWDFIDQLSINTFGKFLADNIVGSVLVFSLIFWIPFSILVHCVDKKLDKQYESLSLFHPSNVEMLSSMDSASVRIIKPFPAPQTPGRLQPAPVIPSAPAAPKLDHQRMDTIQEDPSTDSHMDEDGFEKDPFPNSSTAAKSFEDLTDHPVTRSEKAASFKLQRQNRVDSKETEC
Stromelysin-1, sequence (P08254 whole entry): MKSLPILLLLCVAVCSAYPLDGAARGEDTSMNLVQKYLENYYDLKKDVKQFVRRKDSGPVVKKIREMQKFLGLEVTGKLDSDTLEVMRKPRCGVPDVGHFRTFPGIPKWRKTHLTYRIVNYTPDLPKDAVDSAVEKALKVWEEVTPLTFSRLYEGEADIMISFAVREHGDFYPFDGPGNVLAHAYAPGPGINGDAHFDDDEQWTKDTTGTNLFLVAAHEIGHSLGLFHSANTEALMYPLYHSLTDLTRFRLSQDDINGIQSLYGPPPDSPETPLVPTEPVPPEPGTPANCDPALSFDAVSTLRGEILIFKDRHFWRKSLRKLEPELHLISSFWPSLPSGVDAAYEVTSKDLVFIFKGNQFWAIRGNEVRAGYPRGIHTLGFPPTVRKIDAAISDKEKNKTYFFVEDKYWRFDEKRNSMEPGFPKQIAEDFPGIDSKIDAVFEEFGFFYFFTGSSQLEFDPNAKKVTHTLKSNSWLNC
Matrix metalloproteinase-9, sequence (P14780 whole entry): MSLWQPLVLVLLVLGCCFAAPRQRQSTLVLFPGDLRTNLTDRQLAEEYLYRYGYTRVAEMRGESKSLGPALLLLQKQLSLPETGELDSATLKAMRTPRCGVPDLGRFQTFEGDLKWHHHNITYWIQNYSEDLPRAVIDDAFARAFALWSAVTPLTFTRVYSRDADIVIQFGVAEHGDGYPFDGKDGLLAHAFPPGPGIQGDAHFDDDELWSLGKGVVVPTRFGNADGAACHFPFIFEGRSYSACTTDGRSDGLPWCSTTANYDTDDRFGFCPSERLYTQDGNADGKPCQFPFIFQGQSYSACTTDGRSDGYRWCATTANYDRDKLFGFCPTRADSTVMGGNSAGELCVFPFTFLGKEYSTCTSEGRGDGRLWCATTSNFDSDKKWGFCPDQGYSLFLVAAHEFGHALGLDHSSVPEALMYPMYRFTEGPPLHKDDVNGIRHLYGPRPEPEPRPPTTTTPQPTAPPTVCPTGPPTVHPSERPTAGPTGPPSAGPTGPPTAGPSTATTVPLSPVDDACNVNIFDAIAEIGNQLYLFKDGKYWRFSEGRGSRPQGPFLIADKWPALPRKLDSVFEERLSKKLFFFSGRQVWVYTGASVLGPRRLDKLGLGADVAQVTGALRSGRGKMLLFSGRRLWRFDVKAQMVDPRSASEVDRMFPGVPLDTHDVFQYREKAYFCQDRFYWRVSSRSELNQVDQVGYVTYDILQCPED

What is called Ki is a dissociation constant, usually derived from enzyme kinetics or from competition with a known ligand. For `O=C(NO)[C@H]1[C@@H](O)[C@H](O)[C@@H](O)CN1S(=O)(=O)c1ccc(OC2CCCCC2)cc1`, the Ki in assay [1] is 1.8 nM; in assay [2] it was 0.93 nM; in assay [3] it was 100 nM; in assay [4], 67 nM.
The like results for `CCOCCOc1ccc(S(=O)(=O)N2C[C@H](O)[C@@H](O)[C@H](O)[C@@H]2C(=O)NO)cc1` were, in that order, 42 nM, 64 nM, > 850 nM and 8.7 nM.
As to `O=C(NO)[C@H]1[C@@H](O)[C@H](O)[C@@H](O)CN1S(=O)(=O)c1ccc(Oc2ccccc2)cc1`, the inhibition constant (Ki) was 0.51 nM in assay [1], 8 nM in assay [3] and 2.3 nM in assay [5].
`COc1ccc(S(=O)(=O)N2C[C@H](O)[C@@H](O)[C@H](O)[C@@H]2C(=O)NO)cc1`: the figures for the Ki in assay [3] and in assay [4] were 25 nM and 12 nM, respectively.
The like results for `COc1ccc(S(=O)(=O)N2C[C@@H](O)[C@H](O)[C@@H](O)[C@@H]2C(=O)NO)cc1` were, in that order, 450 nM and 340 nM.
For `COc1ccc(S(=O)(=O)N2C[C@H](O)[C@@H](O)[C@@H](O)[C@@H]2C(=O)NO)cc1`, in assay [4], the Ki amounted to 71 nM.
As for `O=C(NO)[C@H]1[C@@H](O)[C@H](O)[C@@H](O)CN1S(=O)(=O)c1ccc(OCc2ccccc2)cc1`, the Ki in assay [1] worked out at 2.6 nM; in assay [2] it was 6.1 nM; in assay [3], 850 nM; in assay [4], 1.6 nM.
Turning to `COc1ccc(S(=O)(=O)N2C[C@H](O)[C@H](O)[C@@H](O)[C@@H]2C(=O)NO)cc1`, the Ki is > 850 nM in assay [3] and 510 nM in assay [4].

Values taken from ChEMBL document CHEMBL1144950, “Structure--activity relationships of azasugar-based MMP/ADAM inhibitors” (Bioorg Med Chem Lett, 2003).
